Marks after values point to notes of the source that are not given here.
What was measured:
[1] = test system: GFP-LC3B-RFP expressing HEK-293 cells; set-up: method as in Kilpeläinen et al.[15]; conditions: GFP signal percentage of DMSO control with SEM, ref Kilpeläinen et al.[15]; cited from earlier work
[2] = test system: PREP-catalyzed α-synuclein dimerization in N2A cells; assay: αSyn dimerization, protein fragment complementation assay (PCA) in N2A cells; assay type: cell-based; conditions: 10 μM, PCA, Figure S1A, % decrease
Description: The effect of the compounds on autophagy was determined by using GFP-LC3B-RFP expressing HEK-293 cells.[15],[34] The effect on αSyn dimerization was evaluated with a protein fragment complementation assay (PCA) by using N2A cells.[10],[15],[16] The increase in autophagic flux was measured as a decrease in GFP signal due to increased degradation of GFP-LC3B, and the decrease in αSyn dimerization was measured as a decrease in luminescence, both compared with DMSO (Table 1). […] Rapamycin and starvation are known to induce autophagy, lowering the fluorescence to 65–70% in our assays, and were therefore used as reference compounds for this. Test compounds were assayed at 10 μM concentration with 0.1% DMSO. A graphical representation of the mean values (± SEM) can be seen in the Supporting Information (Figure S1).
Measuring biological activity […]
α-Synuclein Dimerization. αSyn dimerization was assessed by using PCA, which was carried out as described previously in Kilpeläinen et al.1 In short, N2A cells were seeded on poly-L-lysine-coated 96-well plates (Isoplate™ white wall, PerkinElmer Life Sciences) at the density of 13 000 cells/well. 24 h post-plating, reporter plasmids were transfected with 100 ng of total plasmid DNA per well. N2A cells were transfected with 25 ng of both αSyn-Gluc1 and αSyn-Gluc2 and 50 ng mock-plasmid or non-tagged human PREP expression plasmid 50 ng/well. Lipofectamine 3000 (Thermo Fischer Scientific) was used as the transfection reagent. 100 µL normal growth medium was added to all wells at 24 h post-transfection. 48 hours post-transfection medium was changed to phenol red free DMEM without serum containing the tested compounds at 10 µM concentration, with 0,1% DMSO as vehicle control. Proteasome inhibitors lactacystin (AG Scientific) at 10 µM and MG-132 (Enzo Life Sciences) at 10 µM served as a positive control. The PCA signal was assessed by injecting 25 µL of native coelenterazine (Nanolight Technology) in phenol red free DMEM per well (final concentration 6 µM). The emitted luminescence was read using Varioskan LUX multimode microplate reader (Thermo Scientific). For each experimental condition, 4 replicate wells were used in each experiment, and at least 3 separate experiments for each treatment except for 15c which had 2 separate experiments. […]

[3] = test system: PREP-catalyzed α-synuclein dimerization in N2A cells; conditions: luminescence signal percentage of DMSO control with SEM, ref Kilpeläinen et al.[16]; cited from earlier work
[4] = test system: GFP-LC3B-RFP expressing HEK-293 cells; assay: Autophagic flux, GFP signal in GFP-LC3B-RFP expressing HEK-293 cells; assay type: cell-based; conditions: for effect on autophagy (in words) / activity at 10 µM: 10 μM; for activity at 10 µM: Homo sapiens, HEK293, GFP signal percentage of DMSO control with SEM, HEK-293 cells, read-out: autophagy at 10 μM (%)
[5] = biological target: T1, purified recombinant porcine PREP (Sus scrofa, UniProt P23687); set-up: method as in Kilpeläinen et al.[16]; conditions: 95% CI in brackets, ref Kilpeläinen et al.[16]; cited from earlier work
T1 construct: made in house; host or cells: E. coli
T1 sequence (P23687 whole entry): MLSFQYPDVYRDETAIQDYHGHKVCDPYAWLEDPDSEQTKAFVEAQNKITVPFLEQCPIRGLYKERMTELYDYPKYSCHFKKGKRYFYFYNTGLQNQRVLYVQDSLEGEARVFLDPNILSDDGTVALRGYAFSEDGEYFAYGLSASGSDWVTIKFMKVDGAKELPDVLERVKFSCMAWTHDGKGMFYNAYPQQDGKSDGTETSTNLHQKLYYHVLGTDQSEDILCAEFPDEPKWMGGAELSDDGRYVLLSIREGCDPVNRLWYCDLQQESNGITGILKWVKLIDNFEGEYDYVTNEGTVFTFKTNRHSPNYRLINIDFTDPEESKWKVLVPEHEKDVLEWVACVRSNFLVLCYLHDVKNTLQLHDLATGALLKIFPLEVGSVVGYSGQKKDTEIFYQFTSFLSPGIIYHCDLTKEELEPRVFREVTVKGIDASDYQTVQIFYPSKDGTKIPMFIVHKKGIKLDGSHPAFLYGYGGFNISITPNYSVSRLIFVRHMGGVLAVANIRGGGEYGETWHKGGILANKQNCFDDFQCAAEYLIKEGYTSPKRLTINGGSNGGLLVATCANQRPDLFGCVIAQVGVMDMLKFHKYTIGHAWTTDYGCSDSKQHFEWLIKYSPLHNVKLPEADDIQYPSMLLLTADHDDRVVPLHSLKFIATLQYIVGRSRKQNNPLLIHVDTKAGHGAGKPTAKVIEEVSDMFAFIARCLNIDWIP

| SMILES | autophagy at 10 μM (%) [1] | decrease of aSyn dimerization compared to DMSO control [2] | α-synuclein dimerization at 10 μM (%) [3] | effect on autophagy (in words) [4] | activity at 10 µM ([4]; 24 h) | IC50 [5] | decrease in autophagic flux assay GFP signal compared to DMSO control ([4]; 10 µM, 24 h, Figure S1B, % decrease) |
| --- | --- | --- | --- | --- | --- | --- | --- |
| N#C[C@@H]1CCCN1C(=O)[C@@H]1CCCN1C(=O)CCCc1ccccc1 [KYP-2047] | 89 ^d (3.4) % |  |  |  |  |  |  |
| O=C(CCCc1ccccc1)N1CCC[C@H]1C(=O)N1CCC[C@H]1c1nnn[nH]1 [Compound 1a] |  | 23% | 82 ^e (6.8) % | no significant activity | 92% |  |  |
| O=C(CCCc1ccccc1)NCC(=O)N1CCC[C@H]1c1nnn[nH]1 [Compound 1e] |  |  | 77 ^e (6.2) % | no significant activity | 90% | 210000 nM |  |
| C[C@H](NC(=O)CCCc1ccccc1)C(=O)N1CCC[C@H]1c1nnn[nH]1 [Compound 1b] |  | 25% | 75 ^e (4.9) % | effective at inducing autophagy | 71% |  | 29% |

Source: PMC8521653 (ACS Medicinal Chemistry Letters, 2021)
